Columns and labels:
Assay in all cases: Protein transfection efficiency by flow cytometry
Type in all cases: cell-based, human
[1] = tested on: ovarian (MDAH2774) cancer cells; conditions: transfected using HEPES buffer (20-30 mM)
Description: FIG. 1 depicts the method of protein transfection in its simplest form: (A) proteins of interest and a protein transfection composition, such as HEPES buffer, are mixed and incubated for about 15 min to about 30 min (“the first incubation time”) to form a mixture. (B) Cells to be transfected are cultured with a first cultured medium comprising at least about 10% fetal bovine serum for about 24 hours, followed by the replacement of the first cultured medium with a minimal essential medium. (C) The mixture in step (A) is added to the cells in minimal essential medium in Step (B) and incubated at 37° C. for about 4 to about 24 hours (“the second incubation time”). (D) The protein transfection efficiency can be analyzed using various methods, such as immunofluorescent staining and flow cytometry. Flow cytometry: After protein transfection was completed, the cells in the culture dish were washed with PBS, trypsinized and pelleted. The cells were mixed with Fixation/Permeabilization (eBioscience, Inc., San Diego, Calif., USA) working solution and incubated at 4° C. for 30 min to 24 h. […] Cells were suspended in 1×PBS and analyzed by flow cytometry (BD Biosciences, Qume Drive San Jose, Calif., USA). […] The protein transfection efficiency can be analyzed using immunofluorescent staining or flow cytometry (Panel D). […]

breast cancer cells = conditions: HEPES buffer 20 mM-40 mM
Description: (§1) Flow cytometry: After protein transfection was completed, the cells in the culture dish were washed with PBS, trypsinized and pelleted. The cells were mixed with Fixation/Permeabilization (eBioscience, Inc., San Diego, Calif., USA) working solution and incubated at 4° C. for 30 min to 24 h. Cells were washed twice with 1× Permeabilization Buffer (eBioscience, Inc., San Diego, Calif., USA). To assess the protein transfection efficiency, the cells were stained with anti-v5 or anti-flag antibodies and Alexa Fluor 488 anti-mouse antibodies on ice. Cells were suspended in 1×PBS and analyzed by flow cytometry (BD Biosciences, Qume Drive San Jose, Calif., USA). FIG. 1 schematically illustrates the protein transfection procedure. Briefly, the protein of interest and a protein transfection composition, such as HEPES buffer, were mixed and incubated for about 15 min to about 30 min to form a mixture (Panel A). Cells to be transfected were replaced in a minimal essential medium (Panel B). The mixture in Panel A was added to the cells in Panel B and incubated at 37° C. for about 4 to about 24 hours (Panel C). The protein transfection efficiency can be analyzed using immunofluorescent staining or flow cytometry (Panel D). Alexa Fluor 488 anti-mouse IgG or […]1 were incubated with Opti-MEM (the control group) or HEPES buffer (20 mM-40 mM) to transfect the following cancer cells according to the steps in Example 1: human cervical cancer cells, human breast cancer cells (MCF7, BRCA009 or BRCA011), human endometrial cancer cells, lung adenocarcinoma cells, human pancreatic cancer cells, hepatocellular carcinoma cells, scarcoma cells, renal cell carcinoma cells, lymphoma cells, nasopharyngeal carcinoma cells, brain tumor cells, colon cancer cells, and leukemic cells. The protein transfection efficiency was assessed by flow cytometry or confocal microscope.

cervical cancer cells = conditions: HEPES buffer 20 mM-40 mM
Description: as §1

endometrial cancer cells = conditions: HEPES buffer 20 mM-40 mM
Description: as §1

[2] = tested on: hepatocellular carcinoma cells; conditions: HEPES buffer 20 mM-40 mM
Description: as §1

[3] = tested on: lung adenocarcinoma cells; conditions: HEPES buffer 20 mM-40 mM
Description: as §1

pancreatic cancer cells = conditions: HEPES buffer 20 mM-40 mM
Description: as §1

rhSTIP1: v5-tagged recombinant human STIP1 protein (BiP-STIP1-V5-His), 62.6 kDa
transfection efficiency: signal detected in % of the ovarian cancer cells [1]: 99.6%
transfection efficiency of rhSTIP1 using HEPES buffer (breast cancer cells): about 98.8%
transfection efficiency of rhSTIP1 using HEPES buffer (cervical cancer cells): about 98.8%
transfection efficiency of rhSTIP1 using HEPES buffer (endometrial cancer cells): ~97%
transfection efficiency of rhSTIP1 using HEPES buffer [2]: ~96.6%
transfection efficiency of rhSTIP1 using HEPES buffer [3]: ~99.5%
transfection efficiency of rhSTIP1 using HEPES buffer (pancreatic cancer cells): ~99.9%

Source: patent US20180221487A1, “NOVEL PROTEIN TRANSFECTION COMPOSITIONS AND USES THEREOF” (Chang Gung Memorial Hospital, Linkou, priority 2017, published 2018)
